Values after ≈ are worked out from the molar mass of the structure shown.
Key:
[1] = system: Escherichia coli ATCC 25922; test: Minimal Inhibitory Concentration (MIC) assay, Escherichia coli ATCC 25922; format: cell-based; details: ATCC25922, 20 h, read-out: MIC Escherichia coli ATCC25922
Description: (§1) The antibacterial activity of the compounds of the present invention was evaluated against the commonly used quality control strain Escherichia coli ATCC 25922 and the rifampin-resistant mutant strain Klebsiella pneumonia ATCC 43816. Both were originally derived from human clinical samples and are available from ATCC (American Type Culture Collection). The in vitro potency of compounds to inhibit Escherichia coli (ATCC 25922) and Klebsiella pneumonia (ATCC 43816) growth was assessed by the MIC (Minimal Inhibitory Concentration) broth dilution method. Specifically compound dilutions were prepared from 10 mM DMSO stock solutions as follows: i) serial 2-fold dilution in 20 μL DMSO were prepared in a master plate (Greiner, Cat No: 651201), ii) 180 μL sterile distilled water was added to each aliquot and iii) 10 μL diluted compounds were transferred into a new assay plate (Costar, 3599).
(§2) Vials of each test microorganisms were maintained frozen in the vapor phase of a liquid nitrogen freezer. Single-use frozen vials of the two strains Escherichia coli ATCC 25922 (KWIKSTIK, 0335K) and Klebsiella pneumonia ATCC 43816, with predetermined CFU/mL, were taken out from the freezer, thawed at room temperature, and diluted in Cation-Adjusted Mueller Hinton Broth (CAMHB) to achieve a final inoculum of 5×10^5 CFU/mL. 90 μL bacteria containing broth was dispensed to the assay plate containing the pre-dispensed compound dilutions and mixed by pipetting 5 times.
(§3) Then the assay plates were incubated for 20 hours at 35° C. in ambient air. Following incubation, the MIC (μg/mL), the lowest concentration of drug that inhibits visible growth of the microorganism was read with the help of a magnification mirror and recorded.

[2] = system: Klebsiella pneumonia ATCC 43816; test: Minimal Inhibitory Concentration (MIC) assay, Klebsiella pneumonia ATCC 43816; format: cell-based; details: Klebsiella pneumoniae, ATCC43816, 20 h, read-out: MIC Klebsiella pneumoniae ATCC43816
Description: as §1, §2, §3

| SMILES | MIC [1] | MIC [2] |
| --- | --- | --- |
| O=C1CC(NC2CCNCC2)C2COc3cc(S(=O)(=O)N4CCN(c5cc(C(F)(F)[C@@H]6COCCO6)cc(Cl)n5)CC4)ccc3N12 (mixture of isomers) [Example 027, 7-[4-[6-Chloro-4-[difluoro-[rac-(2S)-1,4-dioxan-2-yl]methyl]-2-pyridyl]piperazin-1-yl]sulfonyl-3-(4-piperidylamino)-2,3,3a,4-tetrahydropyrrolo[2,1-c][1,4]benzoxazin-1-one] | 2.1 µg/mL (≈ 3.07 µM) | 2.14 µg/mL (≈ 3.13 µM) |
| NC[C@@H]1OC(=O)N2c3ccc(S(=O)(=O)N4CCN(c5cc(C(F)(F)F)cc(Cl)n5)CC4)cc3OC[C@@H]12 (relative stereo) [Example 001] | 0.46 µg/mL (≈ 0.84 µM) | 0.46 µg/mL (≈ 0.84 µM) |
| NC[C@@H]1OC(=O)N2c3ccc(S(=O)(=O)N4CCN(c5cc(S(=O)(=O)C6CC6)cc(Cl)n5)CC4)cc3OC[C@@H]12 (relative stereo) [Example 003] | 0.97 µg/mL (≈ 1.66 µM) | 1.94 µg/mL (≈ 3.32 µM) |
| NC[C@@H]1OC(=O)N2c3ccc(S(=O)(=O)N4CCN(c5cc(S(=O)(=O)c6ccc(N)cc6)cc(Cl)n5)CC4)cc3OC[C@@H]12 (relative stereo) [Example 004] | 0.52 µg/mL (≈ 0.819 µM) | 0.26 µg/mL (≈ 0.409 µM) |
| NC[C@H]1OC(=O)N2c3ccc(S(=O)(=O)N4CCN(c5cc(S(=O)(=O)C6CC6)cc(Cl)n5)CC4)cc3OC[C@@H]12 (relative stereo) [Example 005] | 0.97 µg/mL (≈ 1.66 µM) | 1 µg/mL (≈ 1.71 µM) |
| NC[C@@H]1OC(=O)N2c3ccc(S(=O)(=O)N4CCN(c5cc(C(F)(F)C6C7COCC76)cc(Cl)n5)CC4)cc3OC[C@@H]12 (relative stereo) [Example 018] | 0.28 µg/mL (≈ 0.457 µM) | 0.28 µg/mL (≈ 0.457 µM) |
| Cc1cc(C(F)(F)c2cc(Cl)nc(N3CCN(S(=O)(=O)c4ccc5c(c4)OC[C@H]4[C@H](CN)OC(=O)N54)CC3)c2)ccn1 (relative stereo) [Example 019] | 0.29 µg/mL (≈ 0.467 µM) | 0.28 µg/mL (≈ 0.451 µM) |
| O=C1O[C@@H](CO)[C@@H]2COc3cc(S(=O)(=O)N4CCN(c5cc(C(F)(F)[C@@H]6CNCCO6)cc(Cl)n5)CC4)ccc3N12 (relative stereo) [Example 050, trans-7-[4-[6-chloro-4-[difluoro-[(2S)-morpholin-2-yl]methyl]-2-pyridyl]piperazin-1-yl]sulfonyl-3-(hydroxymethyl)-3a,4-dihydro-3H-oxazolo[4,3-c][1,4]benzoxazin-1-one] | 0.48 µg/mL (≈ 0.779 µM) | 0.48 µg/mL (≈ 0.779 µM) |
| CN1CCC(C(F)(F)c2cc(Cl)nc(N3CCN(S(=O)(=O)c4ccc5c(c4)OC[C@H]4[C@@H](CN)OC(=O)N54)CC3)c2)CC1 (stereo in doubt) [Example 010, cis-3-(aminomethyl)-7-[4-[6-chloro-4-[difluoro-(1-methyl-4-piperidyl)methyl]-2-pyridyl]piperazin-1-yl]sulfonyl-3a,4-dihydro-3H-oxazolo[4,3-c][1,4]benzoxazin-1-one] | 0.98 µg/mL (≈ 1.56 µM) | 0.98 µg/mL (≈ 1.56 µM) |
| NC[C@H]1OC(=O)N2c3ccc(S(=O)(=O)N4CCN(c5cc(C(F)(F)C6COCCO6)cc(Cl)n5)CC4)cc3OC[C@H]12 (stereo in doubt) [Example 017, trans-3-(aminomethyl)-7-[4-[6-chloro-4-[1,4-dioxan-2-yl(difluoro)methyl]-2-pyridyl]piperazin-1-yl]sulfonyl-3a,4-dihydro-3H-oxazolo[4,3-c][1,4]benzoxazin-1-one] | 0.57 µg/mL (≈ 0.925 µM) | 0.57 µg/mL (≈ 0.925 µM) |
| CN1CC=C(C(F)(F)c2cc(Cl)nc(N3CCN(S(=O)(=O)c4ccc5c(c4)OC[C@H]4[C@@H](CN)OC(=O)N54)CC3)c2)CC1 (stereo in doubt) [Example 020, cis-3-(aminomethyl)-7-[4-[6-chloro-4-[difluoro-(1-methyl-3,6-dihydro-2H-pyridin-4-yl)methyl]-2-pyridyl]piperazin-1-yl]sulfonyl-3a,4-dihydro-3H-oxazolo[4,3-c][1,4]benzoxazin-1-one] | 0.29 µg/mL (≈ 0.464 µM) | 0.29 µg/mL (≈ 0.464 µM) |
| O=C1O[C@H](CO)[C@@H]2COc3cc(S(=O)(=O)N4CCN(c5cc(C(F)(F)[C@H]6CNCCO6)cc(Cl)n5)CC4)ccc3N12 (stereo in doubt) [Example 032, cis-7-[4-[6-chloro-4-[difluoro-[(2R)-morpholin-2-yl]methyl]-2-pyridyl]piperazin-1-yl]sulfonyl-3-(hydroxymethyl)-3a,4-dihydro-3H-oxazolo[4,3-c][1,4]benzoxazin-1-one] | 0.24 µg/mL (≈ 0.39 µM) | 0.241 µg/mL (≈ 0.391 µM) |
| NC1CC(=O)N2c3ccc(S(=O)(=O)N4CCN(c5cc(C(F)(F)C6COCCO6)cc(Cl)n5)CC4)cc3OCC12 (stereo not drawn) [Example 008, 3-Amino-7-[4-[6-chloro-4-[1,4-dioxan-2-yl(difluoro)methyl]-2-pyridyl]piperazin-1-yl]sulfonyl-2,3,3a,4-tetrahydropyrrolo[2,1-c][1,4]benzoxazin-1-one] | 0.5 µg/mL (≈ 0.833 µM) | 0.5 µg/mL (≈ 0.833 µM) |
| Cc1cc(C(F)(F)F)nc(N2CCN(S(=O)(=O)c3ccc4c(c3)OCC3CCC(=O)N43)CC2)n1 (stereo not drawn) [Example 011, 7-[4-[4-Methyl-6-(trifluoromethyl)pyrimidin-2-yl]piperazin-1-yl]sulfonyl-2,3,3a,4-tetrahydropyrrolo[2,1-c][1,4]benzoxazin-1-one] | 1.4 µg/mL (≈ 2.81 µM) | 2.87 µg/mL (≈ 5.77 µM) |
| O=C1CCC2COc3cc(S(=O)(=O)N4CCN(c5cc(C(F)(F)F)cc(Cl)n5)CC4)ccc3N12 (stereo not drawn) [Example 012, 7-[4-[6-Chloro-4-(trifluoromethyl)-2-pyridyl]piperazin-1-yl]sulfonyl-2,3,3a,4-tetrahydropyrrolo[2,1-c][1,4]benzoxazin-1-one] | 0.61 µg/mL (≈ 1.18 µM) | – |
| Nc1ccc(S(=O)(=O)c2cc(Cl)nc(N3CCN(S(=O)(=O)c4ccc5c(c4)OCC4CCC(=O)N54)CC3)c2)cc1 (stereo not drawn) [Example 013, 7-[4-[4-(4-Aminophenyl)sulfonyl-6-chloro-2-pyridyl]piperazin-1-yl]sulfonyl-2,3,3a,4-tetrahydropyrrolo[2,1-c][1,4]benzoxazin-1-one] | 0.47 µg/mL (≈ 0.778 µM) | 0.24 µg/mL (≈ 0.397 µM) |
| Nc1ccc(S(=O)(=O)c2cc(Br)nc(N3CCN(S(=O)(=O)c4ccc5c(c4)OCC4CCC(=O)N54)CC3)c2)cc1 (stereo not drawn) [Example 014, 7-[4-[4-(4-Aminophenyl)sulfonyl-6-bromo-2-pyridyl]piperazin-1-yl]sulfonyl-2,3,3a,4-tetrahydropyrrolo[2,1-c][1,4]benzoxazin-1-one] | 0.51 µg/mL (≈ 0.786 µM) | 0.51 µg/mL (≈ 0.786 µM) |
| Cc1cc(C(F)(F)F)nc(N2CCN(S(=O)(=O)c3ccc4c(c3)OC[C@@H]3[C@H](CO)OC(=O)N43)CC2)n1 [Example 015, (3R,3aR)-3-(hydroxymethyl)-7-[4-[4-methyl-6-(trifluoromethyl)pyrimidin-2-yl]piperazin-1-yl]sulfonyl-3a,4-dihydro-3H-oxazolo[4,3-c][1,4]benzoxazin-1-one] | 0.5 µg/mL (≈ 0.944 µM) | 0.76 µg/mL (≈ 1.44 µM) |
| CN1CCC(C(F)(F)c2cc(Cl)nc(N3CCN(S(=O)(=O)c4ccc5c(c4)OCC4CCC(=O)N54)CC3)c2)CC1 (stereo not drawn) [Example 016, 7-[4-[6-Chloro-4-[difluoro-(1-methyl-4-piperidyl)methyl]-2-pyridyl]piperazin-1-yl]sulfonyl-2,3,3a,4-tetrahydropyrrolo[2,1-c][1,4]benzoxazin-1-one] | 1.9 µg/mL (≈ 3.19 µM) | 1.86 µg/mL (≈ 3.12 µM) |
| NC[C@H]1OC(=O)N2c3ccc(S(=O)(=O)N4CCN(c5cc(C(F)(F)[C@@H]6COCCO6)cc(Cl)n5)CC4)cc3OC[C@@H]12 [Example 021, (3R,3aS)-3-(Aminomethyl)-7-[4-[6-chloro-4-[[(2S)-1,4-dioxan-2-yl]-difluoro-methyl]-2-pyridyl]piperazin-1-yl]sulfonyl-3a,4-dihydro-3H-oxazolo[4,3-c][1,4]benzoxazin-1-one] | 0.26 µg/mL (≈ 0.422 µM) | 0.51 µg/mL (≈ 0.828 µM) |
